Results on 29 compounds are retold here after patent publication US20240109853A1 (Shanghai Yao Yuan Biotechnology Co., Ltd., priority 2020, published 2024).

Where two headings read alike, the source gives them in different places.

The assay has as its target ALPK1 (Homo sapiens (Human), UniProt Q96QP1). Nature of the assay: ALPK1 in vitro kinase assay (HTRF of TIFA phosphorylation). It is filed as biochemical. The text has this: In embodiments, a compound of Formula I, or a subembodiment described herein, is an inhibitor of ALPK1 as measured, for example, in an in vitro kinase assay, or an assay designed to measure the activation of downstream targets of ALPK1 pathway activation, for example NFkB transcriptional activation and the secretion of proinflammatory cytokines and chemokines, such as IL-8, which is also referred to as CXCL-8. In general, the computer program XL fit was used for data analysis, including non-linear regression analysis. The half maximal inhibitory concentration (IC50) was used as the measure of a compound's effectiveness in the assays. IC50 values were determined using the following logistic equation Y=min+(max−min)/(1+(X/IC50^−hillslpoe), where Y is the value at the compound concentration, X. The concentration response curve fitting was conducted using GraphPad Prism version 6.00 software.
ALPK1 kinase activity was measured in an in vitro assay using ADP-Heptose as the ALPK1 ligand and activator of its kinase activity and TIFA protein as the ALPK1 phosphorylation substrate. Since phosphorylated TIFA proteins oligomerize, Homogeneous Time-Resolved Fluorescence (HTRF) was used to measure protein:protein interaction between HA-tagged TIFA proteins as an indicator of TIFA phosphorylation.
In brief, dose-response studies were performed with HEK293 cells cultured in Dulbecco's Modified Eagle Medium (DMEM) supplemented 10% fetal bovine serum (FBS, Hyclone™) containing antibiotics (pen/strep, G418) in 384-well assay plates. Each well contained 0.1 mg TIFA, ALPK1 (2 nM final concentration in reaction mixture) and kinase buffer (100 mM of HEPES pH 7.4, 4 mM DTT, 40 mM MgCl2, 20 mM of β-Glycerol phosphate disodium salt, 0.4 mM of Na3VO4, 0.16 mg/mL). Titrations of the test compounds were prepared in dimethylsulphoxide (DMSO). The reaction was initiated by addition of ATP and ADP-Heptose.
For HTRF, samples were incubated with a Tb cryptate-labeled anti-HA antibody for capturing HA-tagged proteins according to the manufacturer's instructions (PerkinElmer™, CisBio™) and the fluorescence signal was quantified (Tecan Infinite F NANO+). HTRF signals were calculated as the HTRF ratio (ratio of fluorescence measured at 665 nm and 620 nm)×104 (thereby using the signal at 620 nm as an internal standard).
IC50 values were determined using 3- or 4-parameter logistic equation using GraphPad Prism version 6.00. The reference compound, A027, was used as a positive control for each plate.

Where [1] appears, read: ALPK1 2 nM, TIFA substrate, ADP-Heptose activator, HTRF readout.

Sequence of ALPK1 (Q96QP1 whole entry): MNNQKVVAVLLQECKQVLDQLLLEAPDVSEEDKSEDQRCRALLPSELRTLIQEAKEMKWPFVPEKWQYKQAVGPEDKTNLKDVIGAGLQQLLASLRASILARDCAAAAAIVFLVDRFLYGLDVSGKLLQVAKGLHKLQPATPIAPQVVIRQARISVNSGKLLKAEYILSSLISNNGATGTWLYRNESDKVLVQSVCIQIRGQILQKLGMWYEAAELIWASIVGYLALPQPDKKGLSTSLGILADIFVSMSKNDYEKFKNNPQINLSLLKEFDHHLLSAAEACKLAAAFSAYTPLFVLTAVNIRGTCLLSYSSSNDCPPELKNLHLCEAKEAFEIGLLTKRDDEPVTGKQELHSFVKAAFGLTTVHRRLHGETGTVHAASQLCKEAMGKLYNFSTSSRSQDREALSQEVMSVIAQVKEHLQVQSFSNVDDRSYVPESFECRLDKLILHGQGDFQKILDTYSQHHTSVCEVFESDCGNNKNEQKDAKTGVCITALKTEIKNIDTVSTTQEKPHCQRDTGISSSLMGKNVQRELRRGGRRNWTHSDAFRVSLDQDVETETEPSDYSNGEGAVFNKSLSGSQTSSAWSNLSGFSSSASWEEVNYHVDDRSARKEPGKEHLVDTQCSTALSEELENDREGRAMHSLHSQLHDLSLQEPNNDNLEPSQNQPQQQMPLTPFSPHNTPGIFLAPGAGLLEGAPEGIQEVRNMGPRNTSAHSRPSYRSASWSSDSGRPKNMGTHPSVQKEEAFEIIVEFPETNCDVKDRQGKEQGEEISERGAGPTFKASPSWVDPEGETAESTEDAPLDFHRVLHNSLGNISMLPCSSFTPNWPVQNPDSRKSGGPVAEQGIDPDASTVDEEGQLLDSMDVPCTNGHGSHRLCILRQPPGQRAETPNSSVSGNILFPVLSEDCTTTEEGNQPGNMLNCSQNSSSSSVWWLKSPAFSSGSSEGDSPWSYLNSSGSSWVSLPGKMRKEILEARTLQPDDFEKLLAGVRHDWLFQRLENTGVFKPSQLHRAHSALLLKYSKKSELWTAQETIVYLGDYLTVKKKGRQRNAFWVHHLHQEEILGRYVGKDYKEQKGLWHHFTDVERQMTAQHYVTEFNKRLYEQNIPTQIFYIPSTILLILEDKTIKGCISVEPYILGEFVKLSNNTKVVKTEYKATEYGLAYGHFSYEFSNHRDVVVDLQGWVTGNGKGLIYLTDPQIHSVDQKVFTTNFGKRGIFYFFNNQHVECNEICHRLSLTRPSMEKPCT

Take `COc1ccc(C(C)(C)c2csc(NC(=O)NCc3ccc(N4CCC(N)C4)nc3)n2)cc1` (centres unmarked) [Example A199, 1-((6-(3-aminopyrrolidin-1-yl)pyridin-3-yl)methyl)-3-(4-(2-(4-methoxyphenyl)propan-2-yl)thiazol-2-yl)urea]: the IC50 was determined as 34 nM.
As for `COc1ccc(C(C)(C)c2csc(NC(=O)c3ccc(OCCCN4CCNCC4)cc3)n2)cc1` [Example B022, N-(4-(2-(4-methoxyphenyl)propan-2-yl)thiazol-2-yl)-4-(3-(piperazin-1-yl)propoxy)benzamide], 294 nM corresponded to half-maximal inhibition under setting [1] (IC50).
Under setting [1], `COc1ccc(C(C)(C)c2csc(NC(=O)c3ccc(CN4CCNCC4C)cc3)n2)cc1` (centres unmarked) [Example B026, N-(4-(2-(4-methoxyphenyl)propan-2-yl)thiazol-2-yl)-4-((2-methylpiperazin-1-yl)methyl)benzamide] had an IC50 of 127 nM.
`CC(C)(c1ccc(Br)cc1)c1csc(NC(=O)NCc2ccc(N3CCC(C(N)=O)CC3)cc2)n1` [Example A006, 1-(4-((3-(4-(2-(4-bromophenyl)propan-2-yl)thiazol-2-yl)ureido)methyl)phenyl) piperidine-4-carboxamide] gave an IC50 of 104 nM.
As to `COc1ccc(C(C)(C)c2csc(NC(=O)c3ccc(CN4CCN(CCO)CC4)nc3)n2)cc1` [Example B052, 6-((4-(2-hydroxyethyl)piperazin-1-yl)methyl)-N-(4-(2-(4-methoxyphenyl)propan-2-yl)thiazol-2-yl)nicotinamide], the IC50 under setting [1] is 111 nM.
The compound `COc1ccc(C(C)(C)c2csc(NC(=O)NCC(=O)CO)n2)cc1` [Example A074, 1-(3-hydroxy-2-oxopropyl)-3-(4-(2-(4-methoxyphenyl)propan-2-yl)thiazol-2-yl)urea] had an IC50 of 61 nM.
`COc1ccc(C(C)(C)c2csc(NC(=O)c3ccc(N4CCNCC4)cc3Cl)n2)cc1` [Example B008, 2-chloro-N-(4-(2-(4-methoxyphenyl)propan-2-yl)thiazol-2-yl)-4-(piperazin-1-yl)benzamide] had an IC50 under setting [1] of 37 nM.
In turn, `C#CC(C)(c1ccc(F)cc1)c1csc(NC(=O)c2ccc(N3CCNCC3)c(C(N)=O)c2)n1` (centres unmarked) [Example B081, N1-(4-(2-(4-fluorophenyl)but-3-yn-2-yl)thiazol-2-yl)-4-(piperazin-1-yl)isophthalamide] returned an IC50 under setting [1] of 102 nM.
On the same count and under the same terms, next, `C#C[C@@](C)(c1ccc(Cl)cc1)c1csc(NC(=O)c2c(F)cc(N3CCN(CCO)CC3)cc2F)n1` [Example C023, (S)-N-(4-(2-(4-chlorophenyl)but-3-yn-2-yl)thiazol-2-yl)-2,6-difluoro-4-(4-(2-hydroxyethyl)piperazin-1-yl)benzamide]: 60 nM; `C#CC(C)(c1ccc(Cl)cc1)c1csc(NC(=O)c2ccc(N3CCNCC3)cc2)n1` (centres unmarked) [Example B062, N-(4-(2-(4-chlorophenyl)but-3-yn-2-yl)thiazol-2-yl)-4-(piperazin-1-yl)benzamide]: 12 nM; `C#C[C@](C)(c1ccc(Cl)cc1)c1csc(NC(=O)c2c(F)cc(N3CCC(N)C3)cc2F)n1` (some centres unmarked) [Example B086]: 286 nM.
Same read-out and setting: next, `COc1ccc(C(C)(C)c2csc(NC(=O)c3ccc(N4CCC(N)C4)cc3)n2)cc1` (centres unmarked) [Example B041, 4-(3-aminopyrrolidin-1-yl)-N-(4-(2-(4-methoxyphenyl)propan-2-yl)thiazol-2-yl)benzamide]: 80 nM; `COc1ccc(C(C)(C)c2csc(NC(=O)c3cccc(N4CCN(CCO)CC4)c3)n2)cc1` [Example B007, 3-(4-(2-hydroxyethyl)piperazin-1-yl)-N-(4-(2-(4-methoxyphenyl)propan-2-yl)thiazol-2-yl)benzamide]: 230 nM.
On the same count and under the same terms, next, `C#C[C@](C)(c1ccc(Cl)cc1)c1nc(NC(=O)c2c(F)cc(N3CCNCC3)cc2F)sc1Cl` (stereo in doubt) [Example C049, N-(5-chloro-4-(2-(4-chlorophenyl)but-3-yn-2-yl)thiazol-2-yl)-2,6-difluoro-4-(piperazin-1-yl)benzamide]: 4520 nM; `CC(C)(c1ccc(Br)cc1)c1csc(NC(=O)c2cnc(N3CCNCC3)nc2)n1` [Example B036, N-(4-(2-(4-bromophenyl)propan-2-yl)thiazol-2-yl)-2-(piperazin-1-yl)pyrimidine-5-carboxamide]: 110 nM.
The compound `Cc1ccc(C(C)(C)c2csc(NC(=O)c3ccc(N4CCNCC4)nc3)n2)cc1` [Example B045, 6-(piperazin-1-yl)-N-(4-(2-(p-tolyl)propan-2-yl)thiazol-2-yl)nicotinamide] yielded an IC50 under setting [1] of 30 nM.
On the same count and under the same terms, next, `COc1ccc(C(C)(C)c2csc(NC(=O)c3cnc(N4CCNCC4)nc3)n2)cc1` [Example B015, N-(4-(2-(4-methoxyphenyl)propan-2-yl)thiazol-2-yl)-2-(piperazin-1-yl)pyrimidine-5-carboxamide]: 161 nM; `CN1CCN(c2cc(F)c(C(=O)Nc3nc(C4(c5ccc(Br)cc5)CCCC4)cs3)c(F)c2)CC1` [Example C015, N-(4-(1-(4-bromophenyl)cyclopentyl)thiazol-2-yl)-2,6-difluoro-4-(4-methylpiperazin-1-yl)benzamide]: 266 nM.
Compound `C#CC(C)(c1ccc(Cl)cc1)c1csc(NC(=O)N(CCO)CCO)n1` (centres unmarked) [Example A267, 3-(4-(2-(4-chlorophenyl)but-3-yn-2-yl)thiazol-2-yl)-1,1-bis(2-hydroxyethyl)urea] registered an IC50 of 171 nM.
The same measure, in the same setting: next, `Cc1nc(CNC(=O)Nc2nc(C(C)(C)c3ccc(Br)cc3)cs2)cc(N2CCNCC2)n1` [Example A095, 1-(4-(2-(4-bromophenyl)propan-2-yl)thiazol-2-yl)-3-((2-methyl-6-(piperazin-1-yl)pyrimidin-4-yl)methyl)urea]: 32 nM.
With `COC[C@](C)(c1ccc(Cl)cc1)c1csc(NC(=O)c2c(F)cc(N3CCNCC3)cc2F)n1` [Example C024, (R)-N-(4-(2-(4-chlorophenyl)-1-methoxypropan-2-yl)thiazol-2-yl)-2,6-difluoro-4-(piperazin-1-yl)benzamide], the IC50 under setting [1] was 130 nM.
Same read-out and setting: then `CN(C)CCNc1ccc(C(=O)Nc2nc(C(C)(C)c3ccc(Br)cc3)cs2)cn1` [Example B055, N-(4-(2-(4-bromophenyl)propan-2-yl)thiazol-2-yl)-6-((2-(dimethylamino)ethyl)amino)nicotinamide], with 125 nM; and `C#CC(C)(c1ccc(F)cc1)c1csc(NC(=O)c2c(F)cc(-c3c[nH]n(C)c3=O)cc2F)n1` (centres unmarked) [Example B103, 2,6-difluoro-N-(4-(2-(4-fluorophenyl)but-3-yn-2-yl)thiazol-2-yl)-4-(2-methyl-3-oxo-2,3-dihydro-1H-pyrazol-4-yl)benzamide], with 5140 nM; and `CC(=O)Nc1nc(C(C)(C)c2ccc(Br)cc2)cs1` [Example D001, N-(4-(2-(4-bromophenyl)propan-2-yl)thiazol-2-yl)acetamide], with 100 nM.
Still for that read-out and setting: then `C#C[C@](C)(c1ccc(F)cc1)c1csc(NC(=O)c2c(F)cc(N3CCC(N)C3)cc2F)n1` (stereo in doubt) [Example B089, 4-(3-aminopyrrolidin-1-yl)-2,6-difluoro-N-(4-(2-(4-fluorophenyl)but-3-yn-2-yl)thiazol-2-yl)benzamide], with 681 nM.
`[2H]C([2H])(O)CNC(=O)Nc1nc([C@](C)(C#C)c2ccc(Cl)cc2)cs1` (single isomer, unassigned) [Example A320, 1-[4-[1-(4-chlorophenyl)-1-methyl-prop-2-ynyl]thiazol-2-yl]-3-(2,2-dideuterio-2-hydroxy-ethyl)urea] gave an IC50 of 44 nM.
Still for that read-out and setting: then `CC(C)(c1ccc(Br)cc1)c1csc(NC(=O)NCc2cnc(NCCN3CCNCC3)nc2)n1` [Example A206, 1-(4-(2-(4-bromophenyl)propan-2-yl)thiazol-2-yl)-3-((2-((2-(piperazin-1-yl)ethyl)amino)pyrimidin-5-yl)methyl)urea], with 68 nM.
With `C#CC(C)(c1ccc(Cl)cc1)c1csc(NC(=O)c2ccc(N3CCNCC3)cc2F)n1` (centres unmarked) [Example B094, N-(4-(2-(4-chlorophenyl)but-3-yn-2-yl)thiazol-2-yl)-2-fluoro-4-(piperazin-1-yl)benzamide], the IC50 under setting [1] is 151 nM.
Still for that read-out and setting: next, `COc1ccc(C(C)(C)c2csc(NC(=O)c3cccc(N4CCNCC4)c3)n2)cc1` [Example B004, N-(4-(2-(4-methoxyphenyl)propan-2-yl)thiazol-2-yl)-3-(piperazin-1-yl)benzamide]: 211 nM.
